# Laboratory results: patent US10464890B2, “PGAM1 inhibitors and methods related thereto” (Emory University, priority 2011, dated 2019)
# Entries after “also recorded” stand apart in the source; their conditions may differ.
# Assays:
# [1] = system: H1299 cells with stable knockdown of PGAM1; test: 14C-serine synthesis assay; assay type: cell-based, human; conditions: methyl-2-PG
# Procedure: Serine synthesis flux from ^14C glucose was measured as described previously (Parry, 1957) with modification. Sub-confluent cells seeded on a 6 cm dish were incubated in complete medium spiked with 40 μCi/ml of D-[U-^14C]-glucose overnight. The incubated cells were lysed with hypotonic lysis buffer (20 mM HEPES (pH 7.0), 5 mM KCl, 1 mM MgCl2, 5 mM DTT, and protease inhibitor cocktail), and the cell lysates were spun down by centrifugation to remove cell debris. The supernatant containing 100 μg of total protein was spotted onto Whatman 3MM paper. One-dimensional chromatogram was run in water saturated phenol, and two-dimentional chromatogram was run in 1-butanol:acetic acid:water solution at the ratio of 100:22:50. L-serine (Sigma) was used as a standard. L-serine dissolved in hypotonic lysis buffer was spotted onto another paper, which was run under the same conditions in parallel with the cell lysate sample. Spots of amino acids were developed by ninhydrin reaction. The spot corresponding to serine was identified based on R^f values of L-serine standard, cut out from the paper, and directly subjected to scintillation counting.
# [2] = system: H1299 cells; test: Lactate production assay; assay type: cell-based, human
# Procedure: (§1) Cellular lactate production was measured under normoxia with a fluorescence-based lactate assay kit (MBL). Phenol red-free RPMI medium without FBS was added to a 6 well-plate of subconfluent cells, and was incubated for 1 h at 37° C. After incubation, 1 ml of media from each well was assessed using the lactate assay kit. Cell numbers were counted by a microscope (×40). Oxygen consumption rates were measured with a Clark type electrode equipped with 782 oxygen meter (Strathkelvin Instruments). 1×10^7 cells were resuspended in RPMI 1640 medium with 10% FBS and placed into a water-jacked chamber RC300 (Strathkelvin Instruments) and recording was started immediately. Intracellular ATP concentration was measured by an ATP bioluminescent somatic cell assay kit (Sigma). 1×10^6 cells were trypsinized and resuspended in ultrapure water. Luminescence was measured with spectrofluorometer (SPECTRA Max Gemini; […]) immediately after the addition of ATP enzyme mix to cell suspension.
# [3] = system: H1299 cells; test: Intracellular ATP assay; assay type: cell-based, human
# Procedure: as §1
# [4] = system: human primary leukemia cells; test: Primary leukemia cells from human patients; assay type: cell-based
# From the text: Approval of use of human specimens was given by the Institutional Review Board of Emory University School of Medicine. All clinical samples were obtained with informed consent with approval by the Emory University Institutional Review Board. Clinical information for the patients was obtained from the pathological files at Emory University Hospital under the guidelines and with approval from the Institutional Review Board of Emory University School of Medicine and according to the Health Insurance Portability and Accountability Act. Only samples from patients that were not previously treated with chemotherapy or radiation therapy were used. Mononuclear cells (MNCs) were isolated from peripheral blood and bone marrow samples from human leukemia patients or peripheral blood samples from healthy donors using lymphocyte separation medium (Cellgro).
# Only samples from patients that were not previously treated with chemotherapy or radiation therapy were used. Mononuclear cells (MNCs) were isolated from peripheral blood and bone marrow samples from human leukemia patients or peripheral blood samples from healthy donors using lymphocyte separation medium (Cellgro).
# [5] = biological target: T1, PGAM1 in leukemia KG1a cells (Homo sapiens, UniProt P18669); test: PGAM1 inhibition in leukemia KG1a cells; assay type: cell-based; conditions: leukemia KG1a cells (2h); compared to alizarin, alizarin Red S, PGMI-001A
# T1 construct: endogenous in cells; host or cells: KG1a leukemia cells; H1299 lung cancer cells
# T1 sequence (P18669 whole entry): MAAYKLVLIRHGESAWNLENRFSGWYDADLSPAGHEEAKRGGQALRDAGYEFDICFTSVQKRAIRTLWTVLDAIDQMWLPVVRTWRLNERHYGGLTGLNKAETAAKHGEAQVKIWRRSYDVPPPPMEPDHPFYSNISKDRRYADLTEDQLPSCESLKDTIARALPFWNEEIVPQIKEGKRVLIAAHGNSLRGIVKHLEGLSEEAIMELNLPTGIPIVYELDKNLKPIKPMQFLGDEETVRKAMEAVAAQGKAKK
# [6] = Toxicity studies in nude mice; assay type: in vivo
# Procedure: Peripheral blood samples were collected and applied for analysis of hematological properties. The vital organs were collected for histo-pathological analysis. […] Images were analyzed and captured using ImageScope software (Aperio Technologies Inc.) without any additional or subsequent image processing (high power images are 20×; low power images are either 4.0×, 4.2×, or 4.4×). Scale bars are indicated.
# An in vivo drug treatment experiment was performed. […] Xenograft experiments were performed by injecting H1299 cells to nude mice.
# [7] = system: diverse human cancer and leukemia cells; test: Cell proliferation of diverse cancer and leukemia cells; assay type: cell-based; conditions: diverse human cancer and leukemia cells incl. H1299, KG1a, 212LN; 72h
# Procedure: (§2) For leukemia cell proliferation assay, 10×10^4 cells were seeded in non-tissue culture coated 6-well plate and incubated at 37° C. for indicated times. Cell numbers were counted by trypan blue exclusion under a microscope (×40) at indicated times and the percentage of cell proliferation was determined by comparing PGAM1 knockdown cells to pLKO.1 vector expressing cells. […] Cell viability was determined by counting drug-treated cells compared to DMSO-treated control cells with trypan blue exclusion under a microscope (×40) and by using CellTiter96Aqueous One solution proliferation kit (Promega). For adherent cell proliferation assay such as H1299 and MDA-MB231 cells, 5×10^4 cells were seeded in 6-well plate 24 h before the assay starts and were cultured at 37° C. 24 h after seeding, cells were treated with 5 μM Methyl-2PG and incubated at 37° C. for indicated times. Cell proliferation was determined by the increase in cell number indicated times after the treatment starts compared to that at the treatment starts for each cell line (T=0). Cell numbers were counted by trypan blue exclusion under a microscope (×40). […] Cell viability was determined by counting drug-treated cells compared to DMSO-treated control cells with trypan blue exclusion under a microscope (×40). […] Cell viability was determined by using CellTiter96Aqueous One solution proliferation kit (Promega).
# [8] = system: human dermal fibroblasts (HDF), human foreskin fibroblasts (HFF), HaCaT keratinocyte cells, melanocyte PIG1 cells; test: Cell proliferation of normal human cells; assay type: cell-based
# Procedure: as §2
# [9] = biological target: PGAM1 (Homo sapiens, UniProt P18669); test: Thermal melt shift assay, PGAM1; assay type: binding; conditions: increasing concentrations, […] to 80 μM
# Chain of PGAM1 (P18669 whole entry): as above
# Procedure: In brief, thermal shift assay of compound-protein interaction was performed in 384-well PCR plates with various compound concentrations and 200 μg/ml protein in a buffer solution (20 mM Tris-HCl, 100 mM NaCl, pH 7.4). SYPRO orange was used as a dye to monitor the fluorescence change at 610 nm. Small molecules were dissolved in DMSO and added to protein solution. Final DMSO concentration of solution is 1%. Dissociation constants (Kds) for protein-ligand interaction were calculated using the method as described.
# The fluorescence intensity data were fitted to Eq. (1) to obtain ΔHu, ΔCpu, and Tm by nonlinear regression using the program Prism:
# The thermal unfolding parameters for 6PGD and PGAM1 alone were determined from 4 control wells, each containing 0.2 mg/mL protein.
# [10] = H1299 cells with stable knockdown of PGAM1, methyl-2-PG
# [11] = H1299 cells treated with PGMI-004A
# [12] = primary leukemia cells from a representative AML patient
# [13] = samples from 7 out of 8 leukemia patients
Structure (SMILES),serine biosynthesis [1],"lactate production [2, 10]","intracellular ATP levels [3, 10]","cell viability in PGMI-004A-treated primary leukemia cells ([4]; representative AML patients, methyl-2-PG added to PGMI-004A)",potency of PGAM1 inhibition in cells [5],"lactate production [2, 11]","body weight, complete blood counts (CBC) or hematopoietic properties ([6]; 100 mg/kg/day for 7 days)","histopathological analyses (kidney, lung, liver, spleen) ([6]; 100 mg/kg/day intraperitoneally for 7 days, vs vehicle)","tolerability ([6]; 100 mg/kg/day intraperitoneally, chronic injection for 4 weeks)",cell proliferation [7],"intracellular ATP levels [3, 11]","2-PG levels [4, 12]","3-PG levels [4, 12]","PGAM1 activity [4, 13]","cell viability [4, 13]","lactate production [4, 13]",cell proliferation / non-specific toxicity in normal cells [8],PGAM1 melting temperature (Tm) [9]
"COC(=O)[C@@H](CO)OP(=O)(O)O [methyl-2-PG, methyl ester of D(+)-2-phosphoglyceric acid, reference compound]",rescues the phenotype,rescues the reduced lactate production,no significant effect on intracellular ATP levels,rescues the decreased cell viability,,,,,,,,,,,,,,
"O=C1c2ccccc2C(=O)c2c1cc(S(=O)(=O)Nc1ccc(C(F)(F)F)cc1)c(O)c2O [PGMI-004A, N-(4-trifluoromethyl)-penyl-3,4-dihydroxy-9,10-dioxo-2-anthracenesulfonamide]",,,,,more potent activity; also recorded: enhanced potency to inhibit PGAM1,significantly reduced lactate production,did not result in significant alteration,did not reveal significant differences; also recorded: no notable differences,well-tolerated,decreased cell proliferation,no significant effect on intracellular ATP levels,decreased,increased,reduced PGAM1 activity,decreased cell viability,reduced,does not affect cell proliferation; also recorded: minimal non-specific toxicity,raises PGAM1 melting temperature (Tm) in a dose-dependent manner
